We go through 10 compounds from ChEMBL document CHEMBL1212880, “Discovery of (2,4-dihydroxy-5-isopropylphenyl)-[5-(4-methylpiperazin-1-ylmethyl)-1,3-dihydroisoindol-2-yl]methanone (AT13387), a novel inhibitor of the molecular chaperone Hsp90 by fragment based drug design” (J Med Chem, 2010).

Series [1] is described as follows: Dissociation constant, pKa of the compound. The class given is physicochemical.
In the next series the target is CYP2C9 (Homo sapiens, UniProt P11712). The series is described as follows: Inhibition of CYP2C9 at 10 uM. The class given is ADME.
The next series has as its target CYP2C19 (Homo sapiens, UniProt P33261). Kind of series: Inhibition of CYP2C19 at 10 uM. The class given is ADME.
Series [2] is described as follows: Protein binding in human plasma after 6 hrs by equilibrium dialysis method. The series is classed as ADME, cell-free. Particulars: read-out: PPB (converted); call rule not given here.
A short description of a further series: physchem. Particulars: buffer, pH 7.4.
For series [3], the target named is T1, hERG (KCNH2) (Homo sapiens, UniProt Q12809). Kind of series: in vitro. Particulars: HEK293 cells expressing hERG. Background: hERG is a cardiac potassium channel; its block is linked to QT prolongation.
Description: Inhibition of human ERG expressed in HEK293 cells at 3 uM by patch clamp assay
Series [4] deals with T1, hERG (KCNH2). Kind of series: in vitro. Particulars: HEK293 cells expressing hERG. The source holds these as a separate data set.
Description: Inhibition of human ERG expressed in HEK293 cells at 30 uM by patch clamp assay
Series [5] has as its system HCT-116. Kind of series: Cytotoxicity against human HCT116 cells at 30 uM by Alamar blue assay. The series is classed as functional, cell-based. On the technique in general: The colour change of resazurin is a common sign of viable cells or microbes.
Series [6] has as its system HCT-116. The series is described as follows: Cytotoxicity against human HCT116 cells at 100 uM by Alamar blue assay. The series is classed as functional.
A short description of series [7]: Clearance in BALB/c mouse plasma at 10 mg/kg, iv. The class given is ADME, organism-based. On the set-up: dose 10 mg/kg, route intravenous.
Series [8] can be described thus: Drug level in human HCT116 cells xenografted nude BALB/c mouse tumor at 40 mg/kg, iv after 24 hrs. Set-up: dose 40 mg/kg, route intravenous. The series is classed as ADME, organism-based, Neoplasm, HCT-116. Particulars: read-out: Drug uptake.
A short description of series [9]: Intrinsic clearance in mouse liver S9 fraction. The class given is ADME, subcellular. The settings on record: liver S9 fraction.
The test system of series [10] is HCT-116. The series is described as follows: Antitumor activity against human HCT116 cells xenografted in BALB/c mouse assessed as inhibition of tumor growth at 80 mg/kg, ip qd for 8 days measured on day 10. The class given is functional. The settings on record: HCT-116, ip, route intraperitoneal.
Series [11] relates to HCT-116. Kind of series: Antitumor activity against human HCT116 cells xenografted in BALB/c mouse assessed as inhibition of tumor growth at 80 mg/kg, ip qd for 8 days measured on day 10 relative to control. The series is classed as functional. The settings on record: HCT-116, ip, route intraperitoneal. (In xenograft studies the graft and the host belong to different species.)

Series [12] has as its system HCT-116. Kind of series: Antitumor activity against human HCT116 cells xenografted in BALB/c mouse assessed as delay in tumor growth at 80 mg/kg, ip qd for 8 days. The class given is functional. Particulars: route intraperitoneal.
The test system of series [13] is HCT-116. The series is described as follows: Cytotoxicity against human HCT116 cells at 10 uM by Alamar blue assay. The series is classed as functional.
A further series concerns the target Cytochrome P450 2C9 (Homo sapiens, UniProt P11712). The series is described as follows: Binding affinity to CYP2C9. The series is classed as ADME.
A further series has as its target Cytochrome P450 2C19 (Homo sapiens, UniProt P33261). The series is described as follows: Binding affinity to CYP2C19. The class given is ADME.

T1 sequence (Q12809 whole entry): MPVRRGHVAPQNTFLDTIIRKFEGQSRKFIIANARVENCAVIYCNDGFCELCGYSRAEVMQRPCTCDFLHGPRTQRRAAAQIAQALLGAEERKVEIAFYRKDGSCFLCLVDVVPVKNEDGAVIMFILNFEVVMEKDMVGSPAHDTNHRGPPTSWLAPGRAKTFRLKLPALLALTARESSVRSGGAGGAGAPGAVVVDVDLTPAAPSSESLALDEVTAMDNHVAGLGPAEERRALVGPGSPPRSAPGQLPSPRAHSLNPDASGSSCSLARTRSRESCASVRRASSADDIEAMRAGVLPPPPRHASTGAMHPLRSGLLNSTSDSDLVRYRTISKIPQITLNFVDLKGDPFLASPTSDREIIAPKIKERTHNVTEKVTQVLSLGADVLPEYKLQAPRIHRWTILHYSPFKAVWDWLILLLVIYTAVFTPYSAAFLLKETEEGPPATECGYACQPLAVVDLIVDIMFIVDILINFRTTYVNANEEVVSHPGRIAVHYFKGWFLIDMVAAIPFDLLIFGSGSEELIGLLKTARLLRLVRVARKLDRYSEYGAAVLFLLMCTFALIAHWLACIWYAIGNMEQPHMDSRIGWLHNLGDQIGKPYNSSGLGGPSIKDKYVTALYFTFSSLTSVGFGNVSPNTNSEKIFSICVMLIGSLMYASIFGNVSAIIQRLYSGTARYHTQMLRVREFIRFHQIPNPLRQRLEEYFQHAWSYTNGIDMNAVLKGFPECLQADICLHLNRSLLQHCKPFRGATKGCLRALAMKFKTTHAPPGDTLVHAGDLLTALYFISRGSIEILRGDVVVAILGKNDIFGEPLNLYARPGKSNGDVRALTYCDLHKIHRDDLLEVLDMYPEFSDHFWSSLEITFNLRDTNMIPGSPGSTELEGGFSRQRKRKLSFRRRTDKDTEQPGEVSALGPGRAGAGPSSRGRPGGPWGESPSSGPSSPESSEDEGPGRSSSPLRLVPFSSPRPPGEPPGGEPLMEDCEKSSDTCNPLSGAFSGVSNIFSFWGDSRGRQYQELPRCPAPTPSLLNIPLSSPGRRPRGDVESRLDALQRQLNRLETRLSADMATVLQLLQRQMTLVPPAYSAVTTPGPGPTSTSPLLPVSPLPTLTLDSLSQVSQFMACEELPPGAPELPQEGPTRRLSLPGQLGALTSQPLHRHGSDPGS
Cytochrome P450 2C9, sequence (P11712 whole entry): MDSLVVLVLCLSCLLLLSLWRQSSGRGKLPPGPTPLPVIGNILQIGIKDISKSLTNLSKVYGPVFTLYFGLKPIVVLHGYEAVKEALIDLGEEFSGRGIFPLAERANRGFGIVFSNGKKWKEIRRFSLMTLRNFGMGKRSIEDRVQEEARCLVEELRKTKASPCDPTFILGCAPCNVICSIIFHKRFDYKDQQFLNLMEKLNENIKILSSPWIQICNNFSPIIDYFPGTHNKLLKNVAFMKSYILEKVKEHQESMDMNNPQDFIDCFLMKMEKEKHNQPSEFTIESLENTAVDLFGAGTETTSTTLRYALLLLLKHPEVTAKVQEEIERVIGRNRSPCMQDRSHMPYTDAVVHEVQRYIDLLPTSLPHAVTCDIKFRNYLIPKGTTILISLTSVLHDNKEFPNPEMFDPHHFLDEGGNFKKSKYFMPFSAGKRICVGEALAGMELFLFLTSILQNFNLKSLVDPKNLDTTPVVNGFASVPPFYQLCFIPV
CYP2C9, sequence (P11712 whole entry): as above
CYP2C19, sequence (P33261 whole entry): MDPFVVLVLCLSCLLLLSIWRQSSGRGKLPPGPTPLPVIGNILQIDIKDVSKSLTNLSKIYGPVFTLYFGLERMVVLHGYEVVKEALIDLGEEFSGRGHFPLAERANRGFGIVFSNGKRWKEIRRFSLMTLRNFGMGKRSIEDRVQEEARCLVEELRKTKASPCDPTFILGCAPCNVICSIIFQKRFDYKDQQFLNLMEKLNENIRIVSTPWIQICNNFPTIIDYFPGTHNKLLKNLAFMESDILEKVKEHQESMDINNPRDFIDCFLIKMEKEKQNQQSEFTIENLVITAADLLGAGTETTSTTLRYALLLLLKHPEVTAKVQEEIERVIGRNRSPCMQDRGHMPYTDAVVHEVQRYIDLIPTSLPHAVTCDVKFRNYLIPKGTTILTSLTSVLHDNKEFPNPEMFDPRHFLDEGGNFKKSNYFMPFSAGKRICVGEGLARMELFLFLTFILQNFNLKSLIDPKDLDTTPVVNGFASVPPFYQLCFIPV
Cytochrome P450 2C19, sequence (P33261 whole entry): as above

Usually pKa stands for the pH at which an ionisable group is half protonated. Low readings indicate a stronger acid or weaker base, high ones a weaker acid or stronger base. For orientation: inhibition means the drop in the measured response relative to a control, in per cent. Lower therefore signals little suppression. For orientation: logD means the decadic logarithm of the distribution of all forms, ionised or not, between an organic phase and buffer at a given pH. Regarding `CC(C)c1cc(C(=O)N2Cc3ccc(CN(C)C)cc3C2)c(O)cc1O`, in series [1], the pKa was 9.2. Moreover, the inhibition at 10 µM against CYP2C9 and against CYP2C19 was 50% throughout. In addition, the fraction unbound at 6 h in series [2] is 0.36. Moreover, the logD in the series “physchem” was 2.1. This compound registered an inhibition at 3 µM against hERG (KCNH2) [3] of 5%. Besides, testing at 30 µM on hERG (KCNH2) [4] gave an inhibition of 57%.

Turning to `CC(C)c1c(O)cc(O)c(C(=O)N2Cc3ccccc3C2)c1F`, the Activity entry in the series on HCT-116 [5] was “Not toxic”; in the series with HCT-116 [6], 60%.

As usually defined, the clearance is the rate of elimination divided by the concentration. In general, microsomal CLint refers to the rate of metabolic loss divided by the concentration. One may read the inhibition in vivo as the change of the read-out against control, counted positive when it falls. Compound `CC(C)c1cc(C(=O)N2Cc3ccc(N4CCN(C)CC4)cc3C2)c(O)cc1O` registered a clearance in [7] of 130 mL/min/kg. In addition, in [8], the concentration at 24 h was determined as 6.5 µM. In series [9], this compound returned a microsomal CLint of 41 µL/min/mg. For the same compound, the pKa in series [1] was 7.3. Further, the inhibition in vivo at 80 mg/kg with HCT-116 [10] was found to be 81%; in the series on HCT-116 [11] it was 19%. Moreover, the results for the Activity with HCT-116 [12] and in the series with HCT-116 [13] were 10.5 days and 0%, respectively. This compound also had a logD in the series “physchem” of 2.98. This compound also displayed an inhibition at 3 µM at hERG (KCNH2) [3] of 41%. The inhibition at 30 µM at hERG (KCNH2) [4] amounted to 87%.

For the compound `CC(C)c1cc(C(=O)N2Cc3ccc(NC4CCNCC4)cc3C2)c(O)cc1O`, the pKa in series [1] is 10.2. The compound also returned a logD in “physchem” of 0.7. The compound also registered an inhibition at 3 µM at hERG (KCNH2) [3] of 10%. The compound further yielded an inhibition at 30 µM against hERG (KCNH2) [4] of 20%.

In turn, `CC(C)c1cc(C(=O)N2Cc3ccc(CN4CCOCC4)cc3C2)c(O)cc1O` displayed a pKa in [1] of 6.9. In the series “physchem”, the logD was found to be 3.3. In addition, the inhibition at 3 µM at hERG (KCNH2) [3] stood at 25%. At 30 µM the inhibition at hERG (KCNH2) [4] was 48%.

`CC(C)c1cc(C(=O)N2Cc3ccc(OCCNC4CCCC4)cc3C2)c(O)cc1O` yielded an inhibition at 3 µM against hERG (KCNH2) [3] of 60%. Moreover, at hERG (KCNH2) [4], at 30 µM the inhibition was 97%.

On to `CC(C)c1cc(C(=O)N2Cc3ccc(OCCCN)cc3C2)c(O)cc1O`, for which, in [1], the pKa was determined as 10.2. For the same compound, the result at Cytochrome P450 2C9 and on Cytochrome P450 2C19 was Active. The same compound showed a logD in the series “physchem” of 0.96. Besides, the inhibition at 3 µM against hERG (KCNH2) [3] came to 8%. The same compound registered an inhibition at 30 µM against hERG (KCNH2) [4] of 42%.

As for `CC(C)c1cc(C(=O)N2Cc3ccc(N4CCNCC4)cc3C2)c(O)cc1O`, the pKa in [1] is 8.4. In addition, in series [2], the fraction unbound at 6 h was 0.36. In the series “physchem”, this compound showed a logD of 1.6. At hERG (KCNH2) [3], this compound returned an inhibition at 3 µM of 13%. The same compound displayed an inhibition at 30 µM against hERG (KCNH2) [4] of 70%.

Compound `CC(C)c1cc(C(=O)N2Cc3ccc(N4CCOCC4)cc3C2)c(O)cc1O` had a pKa in [1] of 4.3.

With `CC(C)c1cc(C(=O)N2Cc3ccc(OCCCN4CCOCC4)cc3C2)c(O)cc1O`, in series [1], the pKa came to 6.9. The compound also returned a logD in the series “physchem” of 3.3. At hERG (KCNH2) [3], this compound returned an inhibition at 3 µM of 51%. This compound gave an inhibition at 30 µM against hERG (KCNH2) [4] of 95%.
